Assay results as given in paper PMC4186413, “Identification of metabolic pathways and enzyme systems involved in the in vitro human hepatic metabolism of dronedarone, a potent new oral antiarrhythmic drug” (Pharmacology Research & Perspectives, 2014).

What was measured:
Type in all cases: in vitro ADME
[1] = Oxidative metabolism by human hepatic microsomal fractions with or without NADPH; details: 1 mg·mL^−1, 5 μmol/L, 30 min
Experimental: (§1) Human hepatic microsomal fractions were obtained from a large pool of human liver (150 individuals) prepared by BD Gentest-Biosciences (BD UltraPool™ HLM 150 – catalogue reference, 452118 Easy Count Box, Woburn, MA). This pooled human liver microsomal batch was also validated internally by the use of FDA-recommended CYP probes (FDA guidance for Industry, draft guidance February 2012).
(§2) For oxidative pathways, the assay mixture was composed of human liver microsomes (1 mg·m·L^−1) or microsomes of baculovirus-infected cells expressing human enzymes (100 pmol·mL^−1 for CYPs and 1 mg·mL^−1 for FMOs and MAOs), nicotinamide adenine dinucleotide phosphate reduced form (NADPH) (1 mmol/L), 100 mmol/L potassium phosphate (pH 7.4), and 5 μmol/L of the investigated compound dissolved in DMSO in a final volume of 500 μL.
The final concentration of DMSO in the reaction mixture was less than 1% (v/v). Initial rate conditions with respect to time and protein concentration for both the disappearance of unchanged drug and the formation of respective metabolites were established in preliminary studies. The enzyme reaction was initiated by addition of NADPH (10 mmol/L aqueous solution) to achieve a final concentration of 1 mmol/L for oxidative CYP- and FMO-dependent reactions or by the drug for MAO-dependent reactions, incubated at 37°C and stopped after 0–30 min by addition of one volume of ice-cold acetonitrile.
(§3) After removal of the proteins by centrifugation at 10,000 rpm for 10 min, a portion of the supernatant was analyzed by LC-UV-MS.
(§4) In human liver microsomes and recombinant isoforms, the percentage of metabolism was determined on the basis of unchanged drug disappearance, using the following equation [drawing 1] where UDt = 30 min represents the unchanged drug peak area after a 30-min incubation period and UDt = 0, the unchanged drug peak area at t = 0.
Dronedarone and its metabolites were incubated over 30 min with human hepatic microsomal fractions (1 mg·mL^−1) at a final concentration of 5 μmol/L, in the absence or the presence of 1 mmol/L NADPH, the cofactor for CYP- and FMO-dependent reactions.

CYP3A5 = target: T1, CYP3A5 (Homo sapiens, UniProt P20815); assay: Oxidation by recombinant human CYP3A5
T1 construct: purchased BD Gentest (Woburn, MA); host or cells: baculovirus-infected insect cells
T1 sequence (P20815 whole entry): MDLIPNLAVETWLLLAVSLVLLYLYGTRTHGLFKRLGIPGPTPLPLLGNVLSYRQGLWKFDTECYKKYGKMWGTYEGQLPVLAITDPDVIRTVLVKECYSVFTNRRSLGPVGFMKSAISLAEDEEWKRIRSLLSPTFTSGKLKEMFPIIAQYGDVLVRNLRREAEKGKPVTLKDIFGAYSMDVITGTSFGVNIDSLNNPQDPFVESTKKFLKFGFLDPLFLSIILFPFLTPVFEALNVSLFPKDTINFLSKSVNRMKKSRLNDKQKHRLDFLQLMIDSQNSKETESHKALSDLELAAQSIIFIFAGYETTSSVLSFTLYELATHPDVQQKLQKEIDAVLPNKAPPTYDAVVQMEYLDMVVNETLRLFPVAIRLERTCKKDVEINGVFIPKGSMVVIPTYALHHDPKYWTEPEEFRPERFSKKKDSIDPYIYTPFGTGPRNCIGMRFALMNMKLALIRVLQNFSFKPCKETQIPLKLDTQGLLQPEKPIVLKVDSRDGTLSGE
Description: (§5) Recombinant human CYPs (Supersomes™; BD Gentes, Woburn, MA: CYP1A1, CYP1A2, CYP2A6, CYP2B6, CYP2C8, CYP2C9, CYP2C18, CYP2C19, CYP2D6, CYP2E1, CYP3A4 and CYP3A5), FMOs (Supersomes™: FMO1, FMO3, FMO5), MAOs (Supersomes™: MAO-A and MAO-B), and UGTs (Supersomes™: UGT1A1, UGT1A3, UGT1A4, UGT1A6, UGT1A7, UGT1A8, UGT1A9, UGT1A10, UGT2B4, UGT2B7, UGT2B15, and UGT2B17) expressed in baculovirus-infected insect cells and control microsomes from insect cells infected with wild-type baculovirus were all obtained from BD Gentest (Woburn, MA). […]
as §4, with “0. […]” for “0.”
(§6) Figure 5 Contribution of individual CYPs, FMOs and MAOs to the oxidation of dronedarone and its metabolites. […] Unchanged drugs were quantified by LC/MS-MS relative to the synthetic references as described in Materials and Methods. Data are expressed as the percentage of oxidation.

CYP3A4 = target: T2, CYP3A4 (Homo sapiens, UniProt P08684); assay: Oxidation by recombinant human CYP3A4; details: for Percentage of oxidation (unchanged drug disappearance) by CYP3A4: 100 pmol/mL, 5 μmol/L, 30 min, NADPH
T2 construct: purchased BD Gentest (Woburn, MA); host or cells: baculovirus-infected insect cells
T2 sequence (P08684 whole entry): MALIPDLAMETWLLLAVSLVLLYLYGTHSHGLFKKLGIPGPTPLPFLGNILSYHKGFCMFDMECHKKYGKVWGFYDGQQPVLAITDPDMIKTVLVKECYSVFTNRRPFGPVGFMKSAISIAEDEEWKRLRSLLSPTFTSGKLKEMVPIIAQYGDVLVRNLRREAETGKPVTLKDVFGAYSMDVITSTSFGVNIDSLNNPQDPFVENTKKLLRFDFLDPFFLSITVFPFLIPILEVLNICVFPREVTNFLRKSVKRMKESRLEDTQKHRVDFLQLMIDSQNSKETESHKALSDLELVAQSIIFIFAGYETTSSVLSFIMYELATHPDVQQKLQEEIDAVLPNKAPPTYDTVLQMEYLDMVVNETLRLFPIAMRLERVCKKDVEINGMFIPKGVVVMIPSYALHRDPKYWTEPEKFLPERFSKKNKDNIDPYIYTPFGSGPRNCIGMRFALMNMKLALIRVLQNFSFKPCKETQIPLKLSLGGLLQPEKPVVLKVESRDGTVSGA
Description: Recombinant human CYPs (Supersomes™; BD Gentes, Woburn, MA: CYP1A1, CYP1A2, CYP2A6, CYP2B6, CYP2C8, CYP2C9, CYP2C18, CYP2C19, CYP2D6, CYP2E1, CYP3A4 and CYP3A5), FMOs (Supersomes™: FMO1, FMO3, FMO5), MAOs (Supersomes™: MAO-A and MAO-B), and UGTs (Supersomes™: UGT1A1, UGT1A3, UGT1A4, UGT1A6, UGT1A7, UGT1A8, UGT1A9, UGT1A10, UGT2B4, UGT2B7, UGT2B15, and UGT2B17) expressed in baculovirus-infected insect cells and control microsomes from insect cells infected with wild-type baculovirus were all obtained from BD Gentest (Woburn, MA).
as §2
The final concentration of DMSO in the reaction mixture was less than 1% (v/v). Initial rate conditions with respect to time and protein concentration for both the disappearance of unchanged drug and the formation of respective metabolites were established in preliminary studies. […]
as §4, with “0. […]” for “0.”
as §6

[2] = Glucuronidation by human hepatic microsomal fractions with UDPGA; details: 5 μmol/L; for Metabolism in the presence of UDPGA: UDPGA as cofactor
Experimental: as §1
For glucuronidation pathways, the assay mixture was composed of human liver microsomes (2 mg·mL^−1) or microsomes of baculovirus-infected cells expressing human UGTs (1 mg·mL^−1), uridine 5′-diphosphoglucuronic acid (UDPGA) (3 mmol/L), 100 mmol/L Tris HCl (pH 7.4) containing 5 mmol/L MgCl2 and 5 μmol/L of the investigated compound dissolved in DMSO in a final volume of 500 μL. The final concentration of DMSO in the reaction mixture was less than 1% (v/v). Initial rate conditions with respect to time and protein concentration for both the disappearance of unchanged drug and the formation of respective metabolites were established in preliminary studies. The microsomal mixture was first incubated for 10 min at 4°C in the presence of alamethicin (0.125 mg·mL^−1), then the reaction was initiated by addition of UDPGA (30 mmol/L aqueous solution) to achieve a final concentration of 3 mmol/L for UGT-dependent reactions, incubated at 37°C and stopped after 0–30 min by addition of one volume of ice-cold acetonitrile.
as §3
Since a N-glucuronidation process could not be excluded, and because some of the metabolites bear either, a free hydroxyl group or carboxylic acid function, glucuronidation of dronedarone and its potential metabolites was also investigated in human hepatic microsomal fractions in the presence of UDPGA as cofactor. Only propanoic acid-dronedarone and phenol-dronedarone were metabolized in the presence of UDPGA.
Figure 6 Quantitative glucuronidation of propanoic acid-dronedarone (A) and phenol-dronedarone (B) during a 30-min incubation of human hepatic microsomal fractions (1 mg/mL final concentration) with 5 μmol/L unchanged drug in the presence of UDPGA. The kinetics of propanoic acid-dronedarone disappearance (○-○), phenol-dronedarone disappearance and their respective glucuronide formation (●-●, dashed line) were recorded over 30 min. Propanoic acid-dronedarone and phenol-dronedarone were quantified by LC/MS-MS relative to the synthetic references, while the peak area of their respective identified glucuronide was expressed in arbitrary units (×10^3), as described in Materials and Methods.

CYP1A1 = target: T3, CYP1A1 (Homo sapiens, UniProt P04798); assay: Oxidation by recombinant human CYP1A1; details: 100 pmol/mL, 5 μmol/L, 30 min, NADPH
T3 construct: purchased BD Gentest (Woburn, MA); host or cells: baculovirus-infected insect cells
T3 sequence (P04798 whole entry): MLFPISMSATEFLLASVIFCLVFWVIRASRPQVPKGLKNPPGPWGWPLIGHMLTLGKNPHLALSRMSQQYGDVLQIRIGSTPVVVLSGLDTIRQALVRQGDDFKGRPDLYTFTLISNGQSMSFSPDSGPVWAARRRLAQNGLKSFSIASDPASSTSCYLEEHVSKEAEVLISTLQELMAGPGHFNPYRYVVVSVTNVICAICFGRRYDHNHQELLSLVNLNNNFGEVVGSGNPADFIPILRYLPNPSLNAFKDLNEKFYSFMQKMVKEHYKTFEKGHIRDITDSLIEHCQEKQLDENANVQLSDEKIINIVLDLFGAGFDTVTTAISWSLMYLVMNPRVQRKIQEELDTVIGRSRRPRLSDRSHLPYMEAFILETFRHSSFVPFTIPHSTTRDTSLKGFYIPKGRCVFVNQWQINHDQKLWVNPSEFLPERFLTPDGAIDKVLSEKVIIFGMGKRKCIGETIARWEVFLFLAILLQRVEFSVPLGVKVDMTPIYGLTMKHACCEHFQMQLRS
Description: as §5
as §4, with “0. […]” for “0.”
as §6

[3] = 5 μmol/L dronedarone, end of 30-min incubation

Row | SMILES | Parent drug metabolized by human hepatic microsomes ([1]; absence of NADPH) | Parent drug metabolized by human hepatic microsomes ([1]; presence of 1 mmol/L NADPH) | Percentage of oxidation (unchanged drug disappearance) by CYP3A5 (CYP3A5; 100 pmol/mL, 5 μmol/L, 30 min, NADPH) [%] | Percentage of oxidation (unchanged drug disappearance) by CYP3A4 (CYP3A4) [%] | Metabolite formed, as percent of initial dronedarone concentration, with CYP3A5 (CYP3A5; [3]) [%] | Metabolite formed, as percent of initial dronedarone concentration, with CYP3A4 (CYP3A4; [3]) [%] | Metabolism in the presence of UDPGA [2] | Initial drug metabolized ([2]; UDPGA, in 10 min) | Percentage of oxidation (unchanged drug disappearance) by CYP1A1 (CYP1A1) [%] | Unchanged drug remaining, percent of initial concentration ([2]; UDPGA, 30th minute of incubation) [%]
1 | CCCCN(CCCC)CCCOc1ccc(C(=O)O)cc1 [C-dealkyl-dronedarone] | No metabolism was observed | No metabolism was observed | – | – | – | – | – | – | – | –
2 | CCCCc1oc2ccc(NS(C)(=O)=O)cc2c1C(=O)c1ccc(OCCCN(CCCC)CCCC)cc1.Cl [Dronedarone, N-(2-Butyl-3-(4-(3-(dibutylamino)propoxy)benzoyl)-5-benzofuranyl)methanesulfonamide, hydrochloride] | not metabolized | ~60% | 90 | 94 | – | – | – | – | – | –

More lines, now with the values ahead:

Row | Parent drug metabolized by human hepatic microsomes ([1]; absence of NADPH) | Parent drug metabolized by human hepatic microsomes ([1]; presence of 1 mmol/L NADPH) | Percentage of oxidation (unchanged drug disappearance) by CYP3A5 (CYP3A5; 100 pmol/mL, 5 μmol/L, 30 min, NADPH) [%] | Percentage of oxidation (unchanged drug disappearance) by CYP3A4 (CYP3A4) [%] | Metabolite formed, as percent of initial dronedarone concentration, with CYP3A5 (CYP3A5; [3]) [%] | Metabolite formed, as percent of initial dronedarone concentration, with CYP3A4 (CYP3A4; [3]) [%] | Metabolism in the presence of UDPGA [2] | Initial drug metabolized ([2]; UDPGA, in 10 min) | Percentage of oxidation (unchanged drug disappearance) by CYP1A1 (CYP1A1) [%] | Unchanged drug remaining, percent of initial concentration ([2]; UDPGA, 30th minute of incubation) [%] | SMILES
3 | 25–30% | 25–30% | – | 21 | 50 | 60 | – | – | – | – | CCCCNCCCOc1ccc(C(=O)c2c(CCCC)oc3ccc(NS(C)(=O)=O)cc23)cc1 [N-debutyl-dronedarone]
4 | very slow | very slow | – | – | – | – | metabolized | more than 70% | 99 | – | CCCCc1oc2ccc(NS(C)(=O)=O)cc2c1C(=O)c1ccc(O)cc1 [Phenol-dronedarone]
5 | No metabolism occurred | 50% | – | – | – | – | metabolized | – | 59 | 70 | CCCCc1oc2ccc(NS(C)(=O)=O)cc2c1C(=O)c1ccc(OCCC(=O)O)cc1 [Propanoic acid-dronedarone]
